Data set [1] deals with stable HCV 1b RLuc replicon cells (dicistronic genotype 1b Con1 replicon). The data set is described as follows: Renilla luciferase HCV replicon reporter assay, genotype 1b. The class given is cell-based. As to conditions: Hepatitis C virus, 72 h, stable 1b Con1 RLuc replicon cells, 72 hours; read-out: 1b. In a few lines: (§1)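 Cells carrying the stable or transiently transfected (Huh-Lunet) dicistronic RLuc replicons received 3-fold serial compound dilutions from 10 mM DMSO stocks. After 72 h, cells were lysed and Renilla luciferase read. DMSO served as the no-inhibition control and ITMN-191 above 100×EC50 as the positive control; EC50 by non-linear regression.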

The test system of data set [2] is stable HCV 1a RLuc replicon cells (dicistronic genotype 1a H77 replicon). The data set is described as follows: Renilla luciferase HCV replicon reporter assay, genotype 1a. It counts as cell-based. The settings on record: Hepatitis C virus, 72 h, stable 1a H77 RLuc replicon cells. The gist of the method: as §1
(In general: In antiviral work, replicon cells carry a viral genome segment that copies itself.)

The test system of data set [3] is stable HCV 2a JFH-1 Rluc replicon cells (L31 present in NS5A). The data set can be described thus: Renilla luciferase HCV replicon reporter assay, genotype 2a JFH-1. As to conditions: Hepatitis C virus. The class given is cell-based. In a few lines:
as §1

The test system of data set [4] is NS5A chimeric genotype 2a JFH-1 replicon with genotype 2b MD2b-1 strain NS5A gene (M31 present). The data set is described as follows: Replicon assay, genotype 2b NS5A chimera. The class given is cell-based, HCV. As to conditions: Hepatitis C virus. The gist of the method:
as §1

Data set [5] deals with NS5A chimeric genotype 1b Con1 replicon with genotype 3a S52 strain NS5A gene. The data set is described as follows: Replicon assay, genotype 3a NS5A chimera. The settings on record: Hepatitis C virus. It counts as cell-based, HCV.
Data set [6] can be described thus: IV and PO single dose pharmacokinetic studies in SD rats. The class given is in vivo, male Sprague-Dawley (SD) rats. The settings on record: Sprague-Dawley, rat, plasma, male SD rats, PO 2 mg/kg vs IV infusion 1 mg/kg, read-out: Rat % F. The procedure:
IV and PO Single Dose Pharmacokinetic Studies in SD Rats:
The pharmacokinetics of selected compounds was characterized in male Sprague-Dawley (SD) rats (250-300g). In this study, two groups of naïve purebred SD rats (N=3 per group, fasted over night) received the selected compound either as an intravenous (IV) infusion (1 mg/kg over 30 minutes) via the jugular vein or by oral gavage (2 mg/kg). The intravenous (IV) dosing vehicle was 5% ethanol, 35% polyethylene glycol 400 (PEG 400) and 60% water pH 2.0. The oral dosing vehicle was 5% ethanol, 55% PEG 400 and 40% citrate buffer pH 2.2.
Serial blood samples (approximately 0.3 mL each) were collected from jugular vein or other suitable vein at specified time points. For the IV infusion group, the blood samples were collected predose and at 0.25, 0.48, 0.58, 0.75, 1.5, 3, 6, 8, 12 and 24 hours after the start of infusion. For the oral group, the blood samples were collected predose and at 0.25, 0.50, 1, 2, 4, 6, 8, 12 and 24 hours after dosing. The blood samples were collected into VacutainerγM tubes containing EDTA-K3 as the anti-coagulant and were centrifuged at approximately 4° C. to obtain plasma. The plasma samples were stored at −20° C. until analysis by LC/MS/MS.
A bioanalytical method utilizing high performance liquid chromatography coupled to tandem mass spectrometry (LC/MS/MS) was developed for analysis of the selected compound in rat plasma. Detection was performed using selected reaction monitoring (SRM); Ions representing the precursor (M+H)^+ species was selected in quadrupole 1 (Q1) and collided with argon gas in the collision cell (Q2) to generate specific product ion, which was subsequently monitored by quadrupole 3 (Q3). Standard curve and quality control samples were prepared in male rat plasma and processed in the same way as the test samples to generate quantitative data.
Pharmacokinetic parameters were generated using non-compartmental pharmacokinetic analysis (Phoenix WinNonlin, version 6.3). Values below the lower limit of quantification (LLOQ) were assigned a value of zero if predose and treated as missing thereafter. Area under the curve (AUC) was calculated using the linear trapezoidal rule. The oral bioavailability (% F) was determined by comparison of the area under the curve (AUC) of the compound and/or a metabolite generated in plasma following oral administration to that generated following intravenous administration.

Data set [7] deals with NS5A chimeric genotype 1b Con1 replicon with genotype 4a ED43 strain NS5A gene. The data set can be described thus: Replicon assay, genotype 4a NS5A chimera. It counts as cell-based, HCV. The settings on record: Hepatitis C virus.
Where [8] appears, read: read-out: 2a JFH (nM), genotype 2a JFH-1 replicon (L31 in NS5A), stable cells.
[9] abbreviates: read-out: 2a JFH, stable 2a JFH-1 Rluc replicon cells, L31 in NS5A, activity range.
Where [10] appears, read: 2BS, read-out: 2b (s), stably replicating replicon cells (s), activity range.
The mark [11] stands for this setting: read-out: 2b (s) (nM), genotype 2b MD2b-1 NS5A chimeric replicon (M31), stably replicating replicon cells (s).
Setting [12] is: read-out: 3a (s) (nM), genotype 3a NS5A chimeric replicon, stable replicon cells (s).
Setting [13] is: read-out: 3a (s), (s), activity range.
The mark [14] stands for this setting: read-out: 4a (s) (nM), genotype 4a NS5A chimeric replicon, stable replicon cells (s).
Where [15] appears, read: read-out: 4a (s), (s), activity range.

Like-named read-outs stand apart in the source and are kept apart here. Bounds are passed on as bounds.

With `CC[C@H]1CC[C@@H](c2nc3ccc4cc5c(cc4c3[nH]2)OCc2cc(-c3cnc([C@@H]4CC[C@H](C)N4C(=O)[C@@H](NC(=O)OC)C(C)C)[nH]3)ccc2-5)N1C(=O)[C@@H](NC(=O)OC)[C@@H](C)OC` [EP, Methyl {(2S,3R)-1-[(2S,5S)-2-ethyl-5-(9-{2-[(2S,5S)-1-{(2S)-[(methoxycarbonyl)amino]-3-methylbutanoyl}-5-methylpyrrolidin-2-yl]-1H-imidazol-5-yl}-1,11-dihydroisochromeno[4′,3′:6,7]naphtho[1,2-d]imidazol-2-yl)pyrrolidin-1-yl]-3-methoxy-1l-oxobutan-2-yl}carbamate], the EC50 was 0.024 nM in data set [1]; 0.014 nM in data set [2]; less than 0.1 nM in data set [2] (activity range); 0.013 nM in data set [3] (setting [8]); less than 0.1 nM in data set [3] (setting [9]); 0.1 to 0.999 nM in data set [4] (setting [10]). Besides, the EC50 in data set [4] (setting [11]) is 0.213 nM; in data set [5] (setting [12]), 0.115 nM; in data set [5] (setting [13]), 0.1 to 0.999 nM. Moreover, the bioavailability in data set [6] is 17.5%.

Take `COC(=O)N[C@H](C(=O)N1[C@@H](C)CC[C@H]1c1ncc(-c2ccc3c(c2)COc2cc4c(ccc5nc([C@@H]6CC[C@H](C)N6C(=O)[C@@H](NC(=O)OC)[C@@H](C)OC(F)F)[nH]c54)cc2-3)[nH]1)C(C)C` [FM, Methyl {(2S)-1-[(2S,5S)-2-(5-{2-[(2S,5S)-1-{(2S,3R)-3-(difluoromethoxy)-2-[(methoxycarbonyl)amino]butanoyl}-5-methylpyrrolidin-2-yl]-1,11-dihydroisochromeno[4′,3′:6,7]naphtho[1,2-d]imidazol-9-yl}-1H-imidazol-2-yl)-5-methylpyrrolidin-1-yl]-3-methyl-1-oxobutan-2-yl}carbamate]: the EC50 in data set [1] was 0.018 nM; in data set [2], 0.009 nM; in data set [2] (activity range), less than 0.1 nM; in data set [3] (setting [8]), 0.019 nM; in data set [3] (setting [9]), less than 0.1 nM; in data set [4] (setting [10]) it was 0.1 to 0.999 nM. In addition, the EC50 was 0.259 nM in data set [4] (setting [11]); 0.061 nM in data set [5] (setting [12]); less than 0.1 nM in data set [5] (setting [13]); 0.007 nM in data set [7] (setting [14]); less than 0.1 nM in data set [7] (setting [15]). For the same molecule, the bioavailability in data set [6] was determined as 22.7%.

In the case of `CC[C@H](C)[C@H](NC(=O)OC)C(=O)N1[C@@H](C)CC[C@H]1c1ncc(-c2ccc3c(c2)COc2cc4c(ccc5nc([C@@H]6CC[C@H](C)N6C(=O)[C@@H](NC(=O)OC)[C@@H](C)OC)[nH]c54)cc2-3)[nH]1` [GF, Methyl {(2S,3S)-1-[(2S,5S)-2-(5-{2-[(2S,5S)-1-{(2S,3R)-3-methoxy-2-[(methoxycarbonyl)amino]butanoyl}-5-methylpyrrolidin-2-yl]-1,11-dihydroisochromeno[4′,3′:6,7]naphtho[1,2-d]imidazol-9-yl}-1H-imidazol-2-yl)-5-methylpyrrolidin-1-yl]-3-methyl-1-oxopentan-2-yl}carbamate], the EC50 was 0.015 nM in data set [1]; 0.007 nM in data set [2]; less than 0.1 nM in data set [2] (activity range); 0.018 nM in data set [3] (setting [8]); less than 0.1 nM in data set [3] (setting [9]); 0.1 to 0.999 nM in data set [4] (setting [10]). Further, the EC50 was 0.203 nM in data set [4] (setting [11]); 0.027 nM in data set [5] (setting [12]); less than 0.1 nM in data set [5] (setting [13]); 0.011 nM in data set [7] (setting [14]); less than 0.1 nM in data set [7] (setting [15]). The bioavailability in data set [6] came to 15.6%.

Take `CC[C@H]1CC[C@@H](c2nc3ccc4cc5c(cc4c3[nH]2)OCc2cc(-c3cnc([C@@H]4CC[C@H](C)N4C(=O)[C@@H](NC(=O)OC)[C@@H](C)CC)[nH]3)ccc2-5)N1C(=O)[C@@H](NC(=O)OC)C1CCOCC1` [IK]: the EC50 was 0.038 nM in data set [1]; 0.039 nM in data set [2]; less than 0.1 nM in data set [2] (activity range); 0.015 nM in data set [3] (setting [8]); less than 0.1 nM in data set [3] (setting [9]); 0.1 to 0.999 nM in data set [4] (setting [10]). Besides, the EC50 in data set [4] (setting [11]) is 0.181 nM; in data set [5] (setting [12]), 0.155 nM; in data set [5] (setting [13]) it was 0.1 to 0.999 nM; in data set [7] (setting [14]), 0.042 nM; in data set [7] (setting [15]) it was less than 0.1 nM. The bioavailability in data set [6] is 27.4%.

Source of the values: patent US10800789B2, “Antiviral compounds” (Gilead Pharmasset LLC, priority 2012, dated 2020).
